Test results from patent US6794124B2, “Preservation solution” (Stiftelsen Facthor, priority 1995, dated 2004).

Experiments:
blood vessels = assay: short-term and long-term preservation of blood vessels
[1] = test system: smooth muscular cells and endothelial cells from blood vessels; assay: morphology of blood vessel cells after long storage with or without calcium (FIG. 2)
Text: The vascular endothelium contains hydrocarbon chains which are bound to proteins in the cell membranes, and these constitute a so-called layer of glycocalyx. This is a thin layer of a mucous substance (composed of sugars) which is considered to enclose the cell membranes and which is important to the properties of immunity of the cell and makes the cell wall permeable. These hydrocarbon chains are bound together by, among other things, calcium. If the vascular endothelial cells are subjected to calcium-free solutions for a long time, a disintegration of the important layer of glycocalyx is assumed to take place, and the function of the endothelium thus cannot be perfect. Evidence of these discoveries has been obtained through electron microscope studies of cell membranes in blood vessels that have been stored in preservation solutions with and without calcium.
The pictures show, on the one hand, smooth muscular cells from blood vessels and, on the other hand, endothelial cells from blood vessels that have been stored for a long time with or without calcium. In the case of preservation without calcium (a: smooth muscular cell and c: endothelial cell), there appears an enormous swelling of the nuclei and the cytoplasm in both types of cells.

heparin [reference compound]
toxicity to the vascular endothelium / endothelial function (blood vessels): not toxic to the endothelial function

[Ca+2] [calcium]
cell morphology after long storage [1]: normal structures of the cells | time for which smooth muscle function in blood vessels is preserved (blood vessels; long-term preservation): up to 36 hours
